Results published in patent US10442767B2 (priority 2012, dated 2019).

Legend:
[1] = Parallel Artificial Membrane Permeability Assay (PAMPA); type: in vitro ADME
Procedure: In this experiment, the inventors included highly permeable verapamil and lowly permeable theophylline as controls.
Permeability studies were performed as previously described by Sugano, et al., 2011. A 96-well microplate (acceptor compartment) was filled with PBS containing 5% DMSO. A hydrophobic filter plate (donor compartment) was placed atop the buffer-filled plate and the filter surface was impregnated with 5 μL solution of porcine polar brain lipids (Avanti Lipids) in dodecane (1% w/v). 150 μL of the test compounds dissolved in PBS containing 5% DMSO (compound concentration 0.5 mM) was added to the donor compartment and covered. The only barrier between the two compartments was the artificial BBB membrane containing the porcine polar brain lipids. The whole system was incubated for several hours.

Stability in microsomes = type: in vitro ADME, CD1 mouse; details: mouse liver microsomes
Procedure: The stability of these drugs in mouse plasma and mouse liver microsomes was also tested. Liver microsomes contain large amounts of cytochrome P450 and can be used to estimate the metabolic stability of drugs.
study compounds were incubated at initial concentration of 1 μM with liver microsomes from CD1 mouse (0.04 mg/mL) in PBS in the presence or absence of enzyme cofactors (1.3 mM NADP^+, 3.3 mM MgCl2, 3.3 mM G6P and 1 U/ml G6PDH, 1 mM UDPGA and 4.7 μg/ml Alamethicin). After t=0, 20, 40 and 60 min, a sample was removed and the reaction was stopped by adding 1 volume of acetonitrile. The loss of compound was determined by LC-MS analysis comparing the amount of compound in the sample to the respective reference samples (without cofactors). To ensure that the assay is reliable, Propanolol and Verapamil were included as control compounds. […]
The Hill equation used to fit the data from the voltage-clamp and the optic nerve experiments was as follows: y=y0+(yf−y0)*x^n/(k^n+x^n); where n refers to the Hill coefficient (typically 1±0.1) and k refers to EC50 or IC50. y0 and yf refers to the origin and final ordinate values and were fixed at 1±0.1 or 0±0.1 depending on the experiment. […] The half-life (t1/2) in the stability and pharmacokinetic experiments was calculated by fitting the data to the equation Ct=C0*exp(−k*t) where C0=initial concentration, Ct=concentration at time t, and k=ln 2/t1/2. […]

[2] = system: hypomyelinated optic nerves from Shiverer mice (shi^−/−); assay: Compound action potential (CAP) of dissected hypomyelinated optic nerve; type: cell-based, mouse; details: Mus musculus; hypomyelinated Shiverer optic nerve, 22 °C, Hill fit; read-out: half-maximal effective concentration (EC50) in enhancing the CAP
Procedure: In order to determine if the drugs could also be effective in enhancing compound action potentials (CAP), the effects of these compounds on the CAP of hypomyelinated optic nerves from Shiverer mice (shi^−/−) and control mice (shi^+/−, shi^+/+) were tested. Shiverer mice lack compact myelin in the CNS due to a null mutation of the myelin basic protein gene (MBP).
optic nerves were dissected from 12-16 week old Shiverer (shi^−/−) and control mice (shi^+/− and shi^+/+). Mice were euthanized by CO2 overdose and the optic nerves were quickly dissected between the eyeball and the optic chiasm. The nerves were incubated for 30 min at 37° C. in oxygenated (95% O2, 5% CO2) aCSF solution (126 mM NaCl, 3 mM KCl, 2 mM MgSO4, 26 mM NaHCO3, 2 mMCaCl2, 10 mM dextrose, pH 7.5) before the experiment.
compound action potentials (CAP) from hypomyelinated nerves (Shiverer mice, shi^−/−) and myelinated nerves (litermate controls, shi^+/− and shi^+/+) were recorded using suction electrodes as described by Stys et al. Briefly, the dissected optic nerve was placed inside a chamber containing oxygenated (5% CO2, 95% O2) aCSF (300 μL) between two suction electrodes (stimulus and recording electrodes) forming a tight seal on each end. Two additional electrodes were placed in the bath for reference. A supramaximal pulse (250 mV, 20 μs) was applied at the stimulating end of the nerve. The resulting CAP was amplified from the recording electrode using a high impedance low-noise amplifier (EG&G Princeton Applied Research Corporation) and filtered and sampled at 10-100 kHz. […] After each measurement the chamber was washed for 5 min (flow 1 mL/min) with oxygenated aCSF. The study was conducted at 22.2±1.3° C. to allow for slower conduction and the temperature was monitored throughout the experiment. CAP recordings were acquired with a SBC6711 board (Innovative Integration) controlled by in-house written software. Analysis of the traces was done using an in-house software. The half-maximal effective concentration (EC50) for each drug was calculated by plotting the final over initial amplitude vs. concentration and fitted to the Hill equation using Origin.
The Hill equation used to fit the data from the voltage-clamp and the optic nerve experiments was as follows: y=y0+(yf−y0)*x^n/(k^n+x^n); where n refers to the Hill coefficient (typically 1±0.1) and k refers to EC50 or IC50. y0 and yf refers to the origin and final ordinate values and were fixed at 1±0.1 or 0±0.1 depending on the experiment. EC50=10^<log EC50>; where <log EC50>=average of log EC50 values from all experiments with the same drug. 95% C.I.=[Upper Limit . . . Lower Limit]; where U.L.=10^(log EC50+s.d.) and L.L.=10^(log EC50−s.d.). The half-life (t1/2) in the stability and pharmacokinetic experiments was calculated by fitting the data to the equation Ct=C0*exp(−k*t) where C0=initial concentration, Ct=concentration at time t, and k=ln 2/t1/2. Student t-test was used to compare results and P<0.05 was considered significant.

C57Bl/6J mice = assay: In vivo effects (tremor, seizures) after intraperitoneal injection; design: species or system mouse; details: i.p.; for Effect: N = 5
Procedure: A consequence of excessive K^+ channel blockage is the advent of seizures. 4-AP is known to cause seizures in mice at high doses.
At high doses, 4-AP causes tremors, muscle spasms and seizures.
10-week-old female C57Bl/6J mice were given an intraperitoneal injection of the drug under investigation and monitored continuously for 4 h. After 4 h no signs of drug effects could be observed. At least 72 h passed between injections to the same mice.

For `Nc1ccncc1F` [3-F-4-AP, 3-fluoro-4-aminopyridine], the “times more permeable than 4-AP” value [1] was 6.6 times, the “Pe: permeability coefficient across artificial membrane” value ([1]; porcine polar brain lipids, 0.5 mM, 16 h, n=3) was 1.56 ± 0.06 ×10⁻⁶ cm/s and the “times more stable than 4-AP in microsomes” value (Stability in microsomes) was 2.7 times. The EC50 [2] was 96 µM, the Effect (C57Bl/6J mice; 30 μmol/kg) was “Mouse quiet” and the Effect (C57Bl/6J mice; 60 μmol/kg) was “Mild tremor, mouse quiet”. For the same molecule, the “duration of effect (tremors, seizures or jerks)” value (C57Bl/6J mice; 90 μmol/kg) was ~30 min, the “mice died of seizure” value (C57Bl/6J mice; 90 μmol/kg) was 1 of 5 mice died of seizure and the “start of tremors and seizures post-injection” value (C57Bl/6J mice; 90 μmol/kg (highest dose)) was 10 s. For the same molecule, the Effect (C57Bl/6J mice; 90 μmol/kg) was “Severe tremors and seizures that start” and the “in vivo potency compared with 4-AP” value (C57Bl/6J mice; mice) was “very similar potency to that of 4-AP”.
